Assay results as given in PMC7814170 (Molecular Biotechnology, 2021).

system: SARS-CoV-2 main protease; assay: not given; conditions: read-out: EC50 measured by FRET-based enzymatic assay; cited from earlier work

Which EC50 does the source give for `CC(C)(C)NC(=O)N[C@H](C(=O)N1C[C@H]2[C@@H]([C@H]1C(=O)NC(CC1CCC1)C(=O)C(N)=O)C2(C)C)C(C)(C)C` (stereo partly shown) [Boceprevir, boceprevir, reference compound] here?
Its EC50 is […].

target: SARS-CoV-2 main protease 3CLpro (Severe acute respiratory syndrome coronavirus 2, UniProt P0DTD1); assay: cell-based; conditions: read-out: inhibition to viral protease (reduction in GFP fluorescent activity)

For `CC(C)(C)NC(=O)N[C@H](C(=O)N1C[C@H]2[C@@H]([C@H]1C(=O)NC(CC1CCC1)C(=O)C(N)=O)C2(C)C)C(C)(C)C` (stereo partly shown) [Boceprevir, boceprevir, reference compound], which inhibition at 40 µM is on record?
Its inhibition at 40 µM is 80%.

For `O=C1c2ccccc2NC(c2cc(Br)ccc2O)N1N=Cc1cc(Br)ccc1O` (stereo not shown) [QZ1, 3-(5-Bromo-2-hydroxybenzylideneamino)-2-(5-bromo-2-hydroxyphenyl)-2,3-dihydroquinazoline-4 (1H)-one], which inhibition at 40 µM is on record?
Its inhibition at 40 µM is 20 to 50%.

For `O=C1c2ccccc2NC(c2cc(Cl)ccc2O)N1N=Cc1cc(Cl)ccc1O` (stereo not shown) [QZ2, 3-[(5-Chloro-2-hydroxy-benzylidene)-amino]-2-(5-chloro-2-hydroxy-phenyl)-2,3-dihydroquinazoline-4(1H)-one], which inhibition at 40 µM is on record?
Its inhibition at 40 µM is 20 to 50%.

With `COc1cc(Br)cc(C=NN2C(=O)c3ccccc3NC2c2cc(Br)cc(OC)c2O)c1O` (stereo not shown) [QZ3, 3-(5-Bromo-2-hydroxy-3-methoxybenzylideneamino)-2-(5-bromo-2-hydroxy-3-methoxyphenyl)-2,3-dihydroquinazoline-4(1H)-one] as the compound, how does the inhibition at 40 µM read?
The inhibition at 40 µM was 20 to 50%.

For `COc1ccc(O)c(C=NN2C(=O)c3ccccc3NC2c2cc(OC)ccc2O)c1` (stereo not shown) [QZ4, 3-(5-Methoxy-2-hydroxybenzylideneamino)-2(5-methoxy-2-hydroxyphenyl)-2,3-dihydroquinazoline-4(1H)-one], which inhibition at 40 µM is on record?
Its inhibition at 40 µM is ~80%.

With `O=C1c2ccccc2NC(c2cc([N+](=O)[O-])ccc2O)N1N=Cc1cc([N+](=O)[O-])ccc1O` (stereo not shown) [QZ5, 3-(5-Nitro-2-hydroxybenzylideneamino)-2(5-nitro-2-hydroxyphenyl)-2,3-dihydroquinazoline-4(1H)-one] as the compound, how does the inhibition at 40 µM read?
The inhibition at 40 µM was 20 to 50%.
